# Test results from patent US20090186079A1, “Oral and overall health by negating the biological effects of bacterial lipids” (priority 2008, published 2009).
# What was measured:
# Type in all cases: cell-based
# [1] = system: Human primary gingival fibroblasts; test: Detergent treatment of lipid-bearing surfaces, gingival fibroblast morphology; conditions: 0.1% detergent in PBS, 1 mL on PGDHC-coated wells, 4° C. overnight
# Protocol: Tissue culture flasks coated with bacterial lipids were used as a model of lipid-coated biological surfaces. Human primary gingival fibroblasts were maintained in 10 mm dishes in Minimun Essential Medium (GIBCO Cat #10370) 90% with 10% heat-inactivated FCS, penicillin (100 U/ml) and streptomycin ([…]). The cells were plated onto the 6-well tissue culture plate with individual wells treated as indicated below and grown at 37° C. in a humidified atmosphere of 5% CO2 in air.
# Lipid coating: The HPLC-purified P. gingivalis phosphoglycerol dihydroceramide (PGDHC) was dissolved in ethanol and added to the 6-well tissue culture plate (10 μg of lipid/well, 10.5 ng/mm^2). The solvent was allowed to evaporate in a laminar flow hood overnight leaving the lipid deposited on the culture well surface. Sham-coated control wells received only ethanol solvent.
# Detergents: 3-[(3-Cholamidopropyl) dimethylammonio]-1-propanesulfonate (CHAPS), Sodium cholate (Cholate), and Tween-20 (Tween) were dissolved at the concentration of 0.1% in phosphate buffered saline (Gibco cat. 1490). 1 mL of freshly prepared […] was added to the wells coated with P. gingivalis phosphoglycerol dihydroceramide. 1 mL of PBS was added to phosphoglycerol dihydroceramide-coated well as a control. The plate was incubated at 4° C. overnight on a rocking platform.
# Detergent treatment of uncoated wells had no effect on primary fibroblasts (data not shown).
# [2] = system: Human primary gingival fibroblasts; test: Collagen coating of lipid-bearing surfaces, gingival fibroblast morphology
# Protocol: Tissue culture flasks coated with bacterial lipids were used as a model of lipid-coated biological surfaces. Human primary gingival fibroblasts were maintained in 10 mm dishes in Minimun Essential Medium (GIBCO Cat #10370) 90% with 10% heat-inactivated FCS, penicillin (100 U/ml) and streptomycin ([…]). The cells were plated onto the 24-well tissue culture plate with individual wells treated as indicated below and grown at 37° C. in a humidified atmosphere of 5% CO2 in air.
# Lipid coating: The HPLC-purified P. gingivalis phosphoglycerol dihydroceramide was dissolved in ethanol and added to the 24-well tissue culture plate (2 μg of lipid/well, 10.5 ng/mm^2). The solvent was allowed to evaporate in a laminar flow hood overnight leaving the lipid deposited on the culture well surface. Sham-coated control wells received only ethanol solvent.
# Collagen coating: 0.5 mL of 50 μg/mL collagen dissolved in 0.02N Acetic acid was added to the 24-well tissue culture plate, and incubated at 4° C. overnight on a rocking platform. The collagen solution was aspirated, and the wells were washed with PBS.
# The treatments were done in triplicate.
# [3] = system: peripheral blood monocytes; test: Morphological changes in peripheral blood monocytes on lipid-coated wells; conditions: treated with 1 μg/mL lipopolysaccharide, 26 hours
# Protocol: Tissue culture flasks coated with bacterial lipids were used as a model of lipid-coated biological surfaces. The HPLC-purified P. gingivalis lipids were dissolved in ethanol and added to the tissue culture plate. The solvent was allowed to evaporate in a laminar flow hood overnight leaving the lipid deposited on the culture well surface. Sham-coated control wells received only ethanol solvent.
# Peripheral blood monocytes were plated into 6-well culture dishes previously coated with the indicated lipid fractions (10 μg of lipid/well, 10.5 ng/mm^2) and were incubated for 26 hours. Culture (a) was the sham coating control, (b) was coated with the total lipid extract of P. gingivalis, (c) was coated with the P. gingivalis dihydroceramide fraction, (d) was coated with the phosphoethanolamine lipids and (e) was coated with the phosphoethanolamine dihydroceramide lipid fraction, (f) was treated with 1 μg/mL Salmonella typhimurium lipopolysaccharide.
Compound,negation of the biological effect of surface-deposited PGDHC [1],other results
"C[C@H](CCC(=O)NCCC[N+](C)(C)CCCS(=O)(=O)[O-])[C@H]1CC[C@H]2[C@@H]3[C@H](O)C[C@@H]4C[C@H](O)CC[C@]4(C)[C@H]3C[C@H](O)[C@]12C [CHAPS, 3-[(3-Cholamidopropyl)dimethylammonio]-1-propanesulfonate]",negated the biological effect of bacterial lipid,–
"C[C@H](CCC(=O)[O-])[C@H]1CC[C@H]2[C@@H]3[C@H](O)C[C@@H]4C[C@H](O)CC[C@]4(C)[C@H]3C[C@H](O)[C@]12C.[Na+] [sodium cholate, Sodium cholate]",negated the biological effect of bacterial lipid,–
collagen,–,"effect of coating alone on primary fibroblasts ([2]; 0.5 mL of 50 μg/mL collagen, wells without lipid): did not have any effect; blocking of the biological effect of surface-deposited phosphoglycerol dihydroceramide ([2]; collagen coated on top of PGDHC (2 μg of lipid/well, 10.5 ng/mm^2)): blocked the biological effect"
lipopolysaccharide,–,cell clustering of monocytes [3]: did not produce similar cell clustering
polyoxyethylene(20) sorbitan monolaurate [Tween-20],negated the biological effect of bacterial lipid,–
